The subject of assay [1] is PDH-E1alpha (pSer300) in HEK293T cells. Description: Cellular immunofluorescence assay, PDH-E1alpha (pSer300). In kind it is cell-based. Particulars: Homo sapiens, HEK-293T, 5 hours incubation, read-out: IC50 (cell data). Here is the method:
Cellular Assay for Determination of Compound Activities
Compound activities were determined in a cellular immunofluorescence assay. Human HEK293T cells were seeded into black 384-well plates with clear bottom and grown overnight.
Next day, test compounds were added to the wells and the plates incubated for 5 hours. Following this, cells were fixed with formaldehyde, permeabilised and blocked. The primary antibody, Anti-PDH-E1alpha (pSer300), AP1064 (Merck Millipore) was added and incubated overnight in the plate wells. Next, cells were washed and the seconday antibody, Alexa Fluor 488, goat anti-rabbit ab (A-11008, Invitrogen) was added together with Hoechst 33258 (H3569, Invitrogen) and incubated for 1 hour in the plate wells. Finally, cells were washed and the plates were measured on the laser scanning cytometer acumen hci (TTpLabtech).
The raw data were normalized against a pharmacological inhibitor control and dose response curves were generated by plotting the percent effect values using the software package Genedata screener (Genedata).

Assay [2] concerns the target PDHK2 (Homo sapiens (Human), UniProt Q15119). Description: Biochemical activity testing of PDHK2: PDC inactivation assay. Particulars: human rec PDHK2, PDC from porcine heart, ATP 5 μM; read-out: IC50 PDHK2 (enzyme assay). The source says: Biochemical Activity Testing of PDHK2: PDC Inactivation Assay
The biochemical activity assay for PDHK2 is based on the inactivation of PDC through phosphorylation by PDHK2. The assay is run in two steps: the enzymatic PDHK2 reaction in which isolated PDC is phosphorylated by PDHK2 with ATP as co-substrate and the PDC activity assay in which pyruvate and NAD are converted to acetyl-CoA and NADH. The PDC activity correlates to the increase in NADH and thereby is detectable directly via the increasing fluorescence signal (Exc 340 nm, Em 450 nm). Inhibition of PDHK2 results in a lower phosphorylation status and thereby a less decrease in activity of PDC and a stronger increase in NADH fluorescence signal.
The PDC inactivation assay is performed in Greiner 384-well microtiter plates and is used for high throughput screen. 4 μl of PDHK2 (human, rec, Carna Bioscience, 10 ng/μl-137 nM final concentration) and PDC (isolated from porcine heart, Sigma-Aldrich, 20 mU/ml final concentration) are incubated in the absence or presence of the test compound (10 dilution concentrations) for 30 min at room temperature in kinase buffer (15 mM potassium phosphate buffer, pH 7.0, 60 mM KCl, 1.5 mM DTT, 2.5 mM MgCl2, 0.0125% (w/v) BSA, 0.125% Pluronic F-68). The kinase reaction is started by the addition of 4 μl ATP substrate solution (fc 5 μM in kinase buffer). After 30 min incubation at 37° C. 40 μl of PDC reaction solution (100 mM Tris/HCl, pH 7.8, 0.5 mM EDTA, 1 mM MgCl2, 50 mM NaF, 0.25 mM Coenzyme A, 5 mM pyruvate, 1 mM NAD, 5 mM DTT, 1 mM thiamine pyrophosphate) is added. The first fluorescence measurement is performed on a Perkin Elmer Envision (Exc 340 nm, Em 450 nm). The reaction is incubated for 45 min at room temperature. Afterwards a second fluorescence measurement is performed and the PDC activity is calculated by the difference between both measurements. As full value for the PDHK2 assay the inhibitor-free PDHK2 reaction is used. The pharmacological zero value used is DCA (Sigma-Aldrich) in a final concentration of 3 mM. The inhibitory values (IC50) were determined using either the program Symyx Assay Explorer® or Condosseo® from GeneData.

Assay [3] concerns the target human PDHK2 (12-407) (Homo sapiens (Human), UniProt Q15119). The experiment in a line: Isothermal titration calorimetry (ITC) binding. Particulars: 30° C., pH 7.5. Here is the method: Isothermal Titration Calorimetry
ITC measurements were performed with a VP-ITC micro calorimeter (Microcal, LLC/GE Healthcare Bio-Sciences AB, Uppsala, Sweden). In general titrations were performed by titrating the protein (50 μM) to the test compound (5 μM) in 12 μl injections. All binding experiments were carried out at 30° C. In general the test compounds were diluted form DMSO stock solutions into the measurement buffer with a maximum final concentration of 1% DMSO. The measurement buffer was 20 mM HEPES, 135 mM KCl, 1 mM TCEP, 2 mM MgCl2, 15 mM NaH2PO4, pH 7.5. The human PDHK2 (12-407) was produced in E. coli as his-tagged protein and purified by affinity chromatography. The tag was removed by side specific proteolysis. Before titration the protein buffer was changed to the measurement buffer containing the same DMSO concentration as the test compound dilution. ITC data analysis was performed using Origin 7 calorimetry software from the same supplier. For most measurements a binding model of one binding site was assumed. According to the applied mathematical model it is possible to calculate the binding constant (KA), the observed binding enthalpy (ΔH^obs) as well as the stoichiometry (N) of the formed complex. Preceding analysis the raw data was corrected for the heats of dilution by extrapolating from the saturation value from the end of titration. In order to allow for direct comparison between the respective experimental series and protein preparations the protein concentration was corrected by referencing titrations to a well behaved standard inhibitor. The apparent stoichiometry values defined the fraction of binding competent protein and compensated for relative errors in protein concentration measurements. This corrected protein concentration was used to set up ITC experiment series with test compounds. Any deviations from ideal 1:1 stoichiometry observed here were attributed to errors in compound concentration. This nominal compound concentration was corrected as well to achieve 1:1 stoichiometry in the fit.
Background: ITC needs no label: the signal is the heat of the interaction.

Broadly, the IC50 is the point on the concentration scale where inhibition reaches its midpoint. By Kd is commonly meant the free concentration of one partner at which half of the binding sites on the other are occupied at equilibrium, for simple one-to-one binding. Low values mean higher affinity, high ones lower affinity. As for `C[C@@H]1CN(C(=O)[C@@](C)(O)C(F)(F)F)CC[C@@H]1C1(c2nnc(-c3ccccc3)[nH]2)CC1` [Compound A14, (R)-3,3,3-Trifluoro-2-hydroxy-2-methyl-1-{(3S,4S)-3-methyl-4-[1-(5-phenyl-4H-[1,2,4]triazol-3-yl)-cyclopropyl]-piperidin-1-yl}-propan-1-one], the values for the half-inhibitory concentration (IC50) in assay [1] and in assay [2] were 19 nM and 130 nM, respectively. Moreover, the Kd in assay [3] is below 2 nM.

Regarding `Cc1ccc(-c2nnc(C3([C@H]4CCN(C(=O)[C@@](C)(O)C(F)(F)F)C[C@H]4C)CC3)o2)cc1` [Compound A25, (R)-3,3,3-Trifluoro-2-hydroxy-2-methyl-1-{(3S,4S)-3-methyl-4-[1-(5-p-tolyl-[1,3,4]oxadiazol-2-yl)-cyclopropyl]-piperidin-1-yl}-propan-1-one], the concentration for half-maximal inhibition (IC50) was 30 nM in assay [1] and 100 nM in assay [2]. Moreover, binding in assay [3] was characterised by a dissociation constant (Kd) of 4.1 nM.

For `COc1ccc(-c2nnc(C3([C@H]4CCN(C(=O)[C@@](C)(O)C(F)(F)F)C[C@H]4C)CC3)o2)cn1` [Compound A43, (R)-3,3,3-Trifluoro-2-hydroxy-1-((3S,4S)-4-{1-[5-(6-methoxy-pyridin-3-yl)-[1,3,4]oxadiazol-2-yl]-cyclopropyl}-3-methyl-piperidin-1-yl)-2-methyl-propan-1-one], the IC50 in assay [1] was 16 nM; in assay [2], 100 nM. The compound also showed a Kd in assay [3] of 3.8 nM.
